Measurements published in US11957656B2, “Methods of treating Prader-Willi syndrome” (The Trustees of Columbia University in the City of New York, priority 2016, dated 2024).
Where two headings read alike, the source gives them in different places.

How the values were obtained:
[1] = cited from earlier work
[2] = test system: PDE4; settings: cited from earlier work
[3] = test system: adenylate cyclase (AC) isoforms; settings: cited from earlier work
[4] = test system: cAMP; experiment: cAMP levels in hypothalamic arcuate-like (ARC) neurons (Hes Nkx2-1 hESC line); type: cell-based, human; settings: 10 μM Forskolin, thirty minutes, day 37 of differentiation
Description: Cyclic AMP concentrations increased about 8.5-fold in iPSC-derived hypothalamic ARC neurons exposed to 10 μM Forskolin, supporting the inference that application of Forskolin increases PCSK1 transcript levels by raising cellular cAMP levels which in turn activate PCSK1's cAMP-response element promoter. FIG. 5A is a graph showing primary forebrain neurons were isolated from gestational day 19.5 (E19.5) embryos of wild type mice and cultured for 72 hours. Subsequently, cells were exposed to either 10 μM Forskolin or its vehicle, dimethyl sulfoxide (DMSO) for 20 hours. Pcsk1 transcript increased 2.5-fold in primary neurons exposed to Forskolin. FIG. 5B is a graph showing unaffected control hypothalamic arcuate-like (ARC) neurons (Hes Nkx2-1 hESC line) at day 37 ([…]) of differentiation were treated with 10 μM Forskolin or vehicle for thirty minutes. Cyclic adenosine monophosphate (cAMP) levels were increased about 8.5-fold in cells exposed to Forskolin. […] Four hours of exposure yielded the maximal increase in upregulation, about 2.5-fold, of the time points tested.

[5] = test system: PCSK1 transcript; experiment: PCSK1 transcript levels in iPSC-derived neurons; type: cell-based, human
Description: FIGS. 6A-F are graphs showing that application of phosphodiesterase inhibitors to iPSC-derived neurons increases PCSK1 transcript levels and prohormone processing. […] FIGS. 6B-C: Roflumilast increases PCSK1 transcript levels in iPSC-derived neurons at Day 40 of differentiation (1043D3 line) at […] concentration. […] FIG. 6F: MK0952 applied at 10 μM in combination with 1 μM Forskolin increases PCSK1 transcript levels ˜2-fold in iPSC-derived neurons (1043D3 line).
Forskolin was applied to various cellular models and the results illustrate that it robustly and reliably increases PCSK1 transcript levels, PC1 protein levels, and functionally increases prohormone processing. PCSK1/Pcsk1 transcript levels increased between 2-3 fold in iPSC-derived neurons and primary mouse neurons exposed to 10 μM Forskolin (FIGS. 5A, C, D).
Cyclic AMP concentrations increased about 8.5-fold in iPSC-derived hypothalamic ARC neurons exposed to 10 μM Forskolin, supporting the inference that application of Forskolin increases PCSK1 transcript levels by raising cellular cAMP levels which in turn activate PCSK1's cAMP-response element promoter. FIG. 5A is a graph showing primary forebrain neurons were isolated from gestational day 19.5 (E19.5) embryos of wild type mice and cultured for 72 hours. Subsequently, cells were exposed to either 10 μM Forskolin or its vehicle, dimethyl sulfoxide (DMSO) for 20 hours. Pcsk1 transcript increased ˜2.5-fold in primary neurons exposed to Forskolin. FIG. 5B is a graph showing unaffected control hypothalamic arcuate-like (ARC) neurons (Hes Nkx2-1 hESC line) at day 37 (D37) of differentiation were treated with 10 μM Forskolin or vehicle for thirty minutes. Cyclic adenosine monophosphate (cAMP) levels were increased about 8.5-fold in cells exposed to Forskolin. […] Four hours of exposure yielded the maximal increase in upregulation, about 2.5-fold, of the time points tested.
However, the effect size of PDE inhibition on PCSK1 transcript levels is less than that induced by AC agonism with forskolin. […] Again, increased PCSK1 transcription due to combination treatment with Forskolin and Roflumilast also increases prohormone processing of POMC to ACTH (FIG. 6E).

[6] = test system: PC1; experiment: PC1 protein levels in isolated islets from WT mice; type: cell-based, mouse; settings: isolated islets from wild type mice, 25 μM and 50 μM Forskolin
[7] = test system: whole blood; settings: cited from earlier work
[8] = test system: PDE4; settings: read-out: IC50 (intrinsic potency, PDE4 inhibitor); cited from earlier work
[9] = Ratio of circulating proinsulin:insulin in wild type mice; type: in vivo, mouse; settings: single administration, ~4 hour fasted wild type mice
Description: The first in vivo study with MK0952 administered by oral gavage while forskolin was administered intraperitoneally one time to ˜4 hour fasted wild type mice was completed. […] This difference likely reflects greater CNS penetrance of the MK0952, not the general relevance of a cyclase activator to therapy of PWS. No change in the ratio of circulating proinsulin:insulin was detected following administration MK0952 or Forskolin. Because the processing of proinsulin to insulin is already quite efficient in WT animals, it is in hindsight unlikely that it would further increase at fasting. However, these ‘baseline’ data are still valuable for assessing proinsulin to insulin processing under the setting of an intraperitoneal glucose tolerance test at […] glucose in both WT and Snord116^p−/m+ mice. Additionally, samples were collected for measurement of circulating cAMP levels, cortical proBDNF/BDNF, cerebellar Pcsk1, gastric Pcsk1, and gastric proghrelin/ghrelin, and finally pulmonary Pcsk1 transcript and cAMP levels.

[10] = cited from earlier work; remark: listed apart in the source

CCOc1cc([C@@H](CS(C)(=O)=O)N2C(=O)c3cccc(NC(C)=O)c3C2=O)ccc1OC [Apremilast]
Brain penetration ([1]; PDE4 inhibitors, Table 1A): None
PDE4 selectivity [2]: Selective

C=C[C@@]1(C)CC(=O)[C@]2(O)[C@@]3(C)[C@@H](O)CCC(C)(C)[C@@H]3[C@H](OC(=O)CCN(C)C)[C@H](OC(C)=O)[C@@]2(C)O1.Cl [FD5]
AC isoforms activated [3]: AC5 (AC5 expressed in heart,

C=C[C@@]1(C)CC(=O)[C@]2(O)[C@@]3(C)[C@@H](O)CCC(C)(C)[C@@H]3[C@H](O)[C@H](OC(C)=O)[C@@]2(C)O1 [Forskolin]
cAMP levels increase [4]: about 8.5 fold
maximal increase in PCSK1 upregulation ([5]; iPSC-derived neurons (line 1043D3), 10 μM Forskolin, four hours): about 2.5 fold
PCSK1 transcript levels increase ([5]; iPSC-derived neurons exposed to 10 μM Forskolin): 2-3 fold
Brain penetration ([1]; adenylate cyclase activators, Table 2): Yes
PC1 protein levels increase [6]: ~3 fold

CCn1ncc2c(NC3CCOCC3)c(-c3nnc(Cc4sc(C)nc4C)o3)cnc21 [GSK356278]
Brain penetration ([1]; PDE4 inhibitors, Table 1A): Good
PDE4 selectivity [2]: Selective

CC(C)Cn1c(=O)n(C)c(=O)c2[nH]cnc21 [IBMX, 3-isobutyl-1-methylxanthine]
PDE4 selectivity [2]: nonselective

CC(C)C(=O)c1c(C(C)C)nn2ccccc12 [Ibudilast]
Brain penetration ([1]; PDE4 inhibitors, Table 1A): Yes

O=C(NC1CC1)c1cn(-c2cccc(-c3ccc([C@@H]4C[C@H]4C(=O)O)c(F)c3)c2)c2ncccc2c1=O [MK0952]
IC50 [7]: 555 nM
PCSK1 transcription, MK0952 as single agent in vitro ([5]; iPSC-derived neurons): only been found to increase PCSK1 transcription in combination with Forskolin
IC50 [8]: 0.6 nM
ratio of circulating proinsulin:insulin [9]: No change
Brain penetration ([1]; PDE4 inhibitors, Table 1A): brain-penetrant and yes
PDE4 selectivity [2]: selective

CC(=O)N[C@@H](C)c1cc(Cl)ccc1C1CCN(C(=O)[C@@H]2CN(C(C)(C)C)C[C@H]2c2ccc(F)cc2F)CC1 [MK-0493]
efficacy for weight loss in non-genetic obese [10]: animal models but limited

O=C(Nc1c(Cl)cncc1Cl)c1ccc(OC(F)F)c(OCC2CC2)c1 [Roflumilast]
PCSK1 transcript levels, single agent ([5]; iPSC-derived neurons Day 40 (1043D3 line), 1 mM): increases
Brain penetration ([1]; PDE4 inhibitors, Table 1A): limited
PDE4 selectivity [2]: Selective

Cn1c(=O)c2[nH]cnc2n(C)c1=O [Theophylline]
PCSK1 transcript levels, single agent ([5]; D34 iPSC-derived hypothalamic ARC neurons (1023A line), 10 mM): increases
